From patent publication US20240116892A1, “HETEROCYCLIC AMIDE AND UREA COMPOUNDS AS JAK2 INHIBITORS” (Ajax Therapeutics, Inc., priority 2022, published 2024)

Target: JAK2 (JH1 domain-catalytic, Y1007F, Y1008F) kinase (Homo sapiens (Human), UniProt O60674, Y1007F/Y1008F)
Experiment: JAK2 JH1 Domain Binding Assay
Details: qPCR readout
In short: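 Competitive binding format: test compound, DNA-tagged JAK2 JH1 (Y1007F/Y1008F; HEK293-expressed NFkB fusion) and ligand-coated magnetic beads incubated 1 h at room temperature. Kinase retained on beads released with 0.5 μmol/L non-biotinylated ligand, then measured by qPCR.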

Chain of JAK2 (JH1 domain-catalytic, Y1007F, Y1008F) kinase (O60674 849-1124 Y1007F/Y1008F): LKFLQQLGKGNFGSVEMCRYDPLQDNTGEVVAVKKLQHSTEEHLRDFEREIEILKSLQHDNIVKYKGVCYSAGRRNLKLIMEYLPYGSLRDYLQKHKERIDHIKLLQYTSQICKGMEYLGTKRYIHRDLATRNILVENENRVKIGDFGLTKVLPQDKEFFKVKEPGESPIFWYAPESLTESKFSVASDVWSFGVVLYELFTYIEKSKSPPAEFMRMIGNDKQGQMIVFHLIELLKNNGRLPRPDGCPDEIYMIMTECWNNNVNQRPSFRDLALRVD

| Kd [nM] | SMILES |
| --- | --- |
| < 10 | CN(C(=O)Nc1cc(C(F)(F)F)cn(C)c1=O)C1CCN(c2cnc3[nH]cc(C4CC4)c3n2)CC1 [Example I-40, 1-(1-(7-cyclopropyl-5H-pyrrolo[2,3-b]pyrazin-2-yl)piperidin-4-yl)-1-methyl-3-(1-methyl-2-oxo-5-(trifluoromethyl)-1,2-dihydropyridin-3-yl)urea] |
| < 10 | CNc1ccnc2c(N3CCC(N(C)C(=O)Nc4cc(C(F)(F)F)cn(C)c4=O)CC3)cnn12 [Example I-42, 1-methyl-3-(1-methyl-2-oxo-5-(trifluoromethyl)-1,2-dihydropyridin-3-yl)-1-(1-(7-(methylamino)pyrazolo[1,5-a]pyrimidin-3-yl)piperidin-4-yl)urea] |
| 10 to 50 | CN(C(=O)Nc1cc(C(F)(F)F)cn(C)c1=O)[C@@H]1C[C@@H]2C[C@H]1CN2c1cnc2[nH]ccc2n1 [Example I-43-a, 1-((1S,4S,5R)-2-(5H-pyrrolo[2,3-b]pyrazin-2-yl)-2-azabicyclo[2.2.1]heptan-5-yl)-1-methyl-3-(1-methyl-2-oxo-5-(trifluoromethyl)-1,2-dihydropyridin-3-yl)urea] |
| 10 to 50 | CN(C(=O)Nc1cc(C(F)(F)F)cn(C)c1=O)[C@H]1C[C@H]2C[C@@H]1CN2c1cnc2[nH]ccc2n1 [Example I-43-b, 1-((1R,4R,5S)-2-(5H-pyrrolo[2,3-b]pyrazin-2-yl)-2-azabicyclo[2.2.1]heptan-5-yl)-1-methyl-3-(1-methyl-2-oxo-5-(trifluoromethyl)-1,2-dihydropyridin-3-yl)urea] |
| < 10 | CN(C)c1n[nH]c2ncc(N3CCC(N(C)C(=O)Nc4cc(C(F)(F)F)cn(C)c4=O)CC3)cc12 [Example I-46, 1-(1-(3-(dimethylamino)-1H-pyrazolo[3,4-b]pyridin-5-yl)piperidin-4-yl)-1-methyl-3-(1-methyl-2-oxo-5-(trifluoromethyl)-1,2-dihydropyridin-3-yl)urea] |
| 10 to 50 | Cn1cc(C(F)(F)F)cc(NC(=O)N2CCCC23CCN(c2cnc4[nH]ccc4n2)CC3)c1=O [Example I-47, N-(1-methyl-2-oxo-5-(trifluoromethyl)-1,2-dihydropyridin-3-yl)-8-(5H-pyrrolo[2,3-b]pyrazin-2-yl)-1,8-diazaspiro[4.5]decane-1-carboxamide] |
| 10 to 50 | CN(C)C(=O)Nc1cnc(N2CCC(N(C)C(=O)Nc3cc(C(F)(F)F)cn(C)c3=O)CC2)cn1 [Example I-48, 1,1-dimethyl-3-(5-(4-(1-methyl-3-(1-methyl-2-oxo-5-(trifluoromethyl)-1,2-dihydropyridin-3-yl)ureido)piperidin-1-yl)pyrazin-2-yl)urea] |
| 10 to 50 | Cn1cc(C(F)(F)F)cc(NC(=O)N2CCCC23CCN(c2cnc4[nH]ncc4c2)CC3)c1=O [Example I-50, N-(1-methyl-2-oxo-5-(trifluoromethyl)-1,2-dihydropyridin-3-yl)-8-(1H-pyrazolo[3,4-b]pyridin-5-yl)-1,8-diazaspiro[4.5]decane-1-carboxamide] |
| 10 to 50 | CN(C(=O)Nc1cc(C(F)(F)F)cn(C)c1=O)C1(C)CCN(c2cnc3[nH]ccc3n2)CC1 [Example I-51, 1-methyl-1-(4-methyl-1-(5H-pyrrolo[2,3-b]pyrazin-2-yl)piperidin-4-yl)-3-(1-methyl-2-oxo-5-(trifluoromethyl)-1,2-dihydropyridin-3-yl)urea] |
| 50 to 1000 | Cn1cc(C(F)(F)F)cc(NC(=O)N2CCCC23CCN(c2cnc4[nH]cc(F)c4n2)CC3)c1=O [Example I-52, 8-(7-fluoro-5H-pyrrolo[2,3-b]pyrazin-2-yl)-N-(1-methyl-2-oxo-5-(trifluoromethyl)-1,2-dihydropyridin-3-yl)-1,8-diazaspiro[4.5]decane-1-carboxamide] |
| < 10 | CN(C(=O)Nc1cc(C(F)(F)F)cn(C)c1=O)C1CC2(C1)CN(c1cnc3[nH]ccc3n1)C2 [Example I-55, 1-(2-(5H-pyrrolo[2,3-b]pyrazin-2-yl)-2-azaspiro[3.3]heptan-6-yl)-1-methyl-3-(1-methyl-2-oxo-5-(trifluoromethyl)-1,2-dihydropyridin-3-yl)urea] |
| 10 to 50 | CN(C(=O)Nc1cc(C(F)(F)F)cn(C)c1=O)C1(C)CCN(c2cnc3[nH]cc(F)c3n2)CC1 [Example I-56, 1-(1-(7-fluoro-5H-pyrrolo[2,3-b]pyrazin-2-yl)-4-methylpiperidin-4-yl)-1-methyl-3-(1-methyl-2-oxo-5-(trifluoromethyl)-1,2-dihydropyridin-3-yl)urea] |
| < 10 | CN(C(=O)Nc1cc(C(F)(F)F)cn(C)c1=O)C1CC2(C1)CN(c1cnc3[nH]ncc3c1)C2 [Example I-57, 1-(2-(1H-pyrazolo[3,4-b]pyridin-5-yl)-2-azaspiro[3.3]heptan-6-yl)-1-methyl-3-(1-methyl-2-oxo-5-(trifluoromethyl)-1,2-dihydropyridin-3-yl)urea] |
| < 10 | C[C@@H]1CN(c2cnc3[nH]ccc3n2)CC[C@@H]1N(C)C(=O)Nc1cc(C(F)(F)F)cn(C)c1=O [Example I-58-a, 1-methyl-1-((3R,4S)-3-methyl-1-(5H-pyrrolo[2,3-b]pyrazin-2-yl)piperidin-4-yl)-3-(1-methyl-2-oxo-5-(trifluoromethyl)-1,2-dihydropyridin-3-yl)urea] |
| < 10 | C[C@H]1CN(c2cnc3[nH]ccc3n2)CC[C@H]1N(C)C(=O)Nc1cc(C(F)(F)F)cn(C)c1=O [Example I-58-b, 1-methyl-1-((3S,4R)-3-methyl-1-(5H-pyrrolo[2,3-b]pyrazin-2-yl)piperidin-4-yl)-3-(1-methyl-2-oxo-5-(trifluoromethyl)-1,2-dihydropyridin-3-yl)urea] |
| < 10 | CN(C(=O)Nc1cc(C(F)(F)F)cn(C)c1=O)C1CCN(c2cnc3[nH]cc(C#N)c3n2)CC1 [Example I-59, 1-(1-(7-cyano-5H-pyrrolo[2,3-b]pyrazin-2-yl)piperidin-4-yl)-1-methyl-3-(1-methyl-2-oxo-5-(trifluoromethyl)-1,2-dihydropyridin-3-yl)urea] |
| < 10 | CN(C(=O)Nc1cc(C(F)(F)F)cn(C)c1=O)[C@@H]1CCN(c2cnc3[nH]ccc3n2)C[C@@H]1F [Example I-64-a, 1-((3S,4R)-3-fluoro-1-(5H-pyrrolo[2,3-b]pyrazin-2-yl)piperidin-4-yl)-1-methyl-3-(1-methyl-2-oxo-5-(trifluoromethyl)-1,2-dihydropyridin-3-yl)urea] |
| < 10 | CN(C(=O)Nc1cc(C(F)(F)F)cn(C)c1=O)[C@H]1CCN(c2cnc3[nH]ccc3n2)C[C@H]1F [Example I-64-b, 1-((3R,4S)-3-fluoro-1-(5HI-pyrrolo[2,3-b]pyrazin-2-yl)piperidin-4-yl)-1-methyl-3-(1-methyl-2-oxo-5-(trifluoromethyl)-1,2-dihydropyridin-3-yl)urea] |
| < 10 | Cn1cc(C(F)(F)F)cc(NC(=O)C2(C3CCN(c4cnc5[nH]cc(F)c5n4)CC3)CC2)c1=O [Example I-65, 1-(1-(7-fluoro-5H-pyrrolo[2,3-b]pyrazin-2-yl)piperidin-4-yl)-N-(1-methyl-2-oxo-5-(trifluoromethyl)-1,2-dihydropyridin-3-yl)cyclopropane-1-carboxamide] |
| < 10 | CN(C(=O)Nc1cc(C(F)(F)F)cn(C)c1=O)C1CCN(c2cnc3sncc3c2)CC1 [Example I-66, 1-(1-(isothiazolo[5,4-b]pyridin-5-yl)piperidin-4-yl)-1-methyl-3-(1-methyl-2-oxo-5-(trifluoromethyl)-1,2-dihydropyridin-3-yl)urea] |
